Test results from patent publication US10030030B2, “Crystals of dispiropyrrolidine derivatives” (Daiichi Sankyo Company, Limited, priority 2012, dated 2018).

Columns and labels:
[1] = target: T1, Mdm2/p53 binding (His-p53 and GST-Mdm2) (Homo sapiens, UniProt Q00987, L33E); assay: Mdm2/p53 binding assay (HTRF); details: His-p53 (aa 1-132) / GST-Mdm2 (aa 25-108, L33E), 6.25 nM each, 25° C., 1 hour
T1 construct: Mdm2 amino acids at positions 25 to 108
Procedure: A protein dilution containing 6.25 nM each of His-p53 (fusion protein of a p53 partial protein having p53 amino acids at positions 1 to 132, with a histidine protein) and GST-Mdm2 (fusion protein of a Mdm2 partial protein, having Mdm2 amino acids at positions 25 to 108 with leucine residue 33 substituted by glutamic acid, with glutathione transferase) proteins was prepared using a protein buffer solution (20 mM HEPES pH 7.4, 150 mM NaCl, 0.1% BSA). This protein dilution was added in an amount of 8 μL/well to a 384-well plate (384-well low volume NBC, Corning Inc., catalog No: 3676). […]
Time-resolved fluorescence at 620 and 665 nm was measured at an excitation wavelength of 320 nm using a plate reader (ARVOsx, PerkinElmer Co., Ltd. or PHERAstar, BMG LABTECH). Ratio (R) was calculated using the measured values (RFU 620 nm and RFU 665 nm) according to the following formula: R=(RFU 665 nm−BI−C×RFU 620 nm)/RFU 620 nm
BI: measured value at 665 nm of reaction solution (only each buffer solution) nonsupplemented with each protein, the compound, and the antibodies […]
A and D: each measured value at 665 nm and 620 nm of reaction solution supplemented with only Eu-labeled anti-GST antibody solution.
The R value calculated from the well supplemented with His-p53, GST-Mdm2, the test compound, and each antibody was defined as R (sample). […] T/C was calculated from the formula shown below. […]

[2] = tested on: human lung cancer-derived cell line NCI-H460 having wild-type p53; assay: Cell growth inhibition assay (MTT); type: cell-based; details: 72 h, NCI-H460 cells, 3 days culture, read-out: cell growth inhibiting effect GI50
Procedure: A cell growth inhibition assay was conducted using human lung cancer-derived cell line NCI-H460 having wild-type p53.
NCI-H460 cells were suspended in a medium (RPMI1640 medium containing 10% fetal bovine serum) and the suspension was inoculated in an amount of 500 cells/150 μL/well to a 96-well multiwell plate. A test compound was dissolved in DMSO and this solution was diluted with medium to prepare a sample solution (DMSO concentration: 1% or lower). On the next day of inoculation, medium nonsupplemented with the test compound or the sample solution was added in an amount of 50 μL/well. […]
A 5 mg/mL MTT (3-(4,5-dimethylthiazol-2-yl)-2,5-diphenyltetrazolium bromide, Sigma-Aldrich Co., M-2128) solution was prepared using a phosphate buffer solution (Dulbecco's Phosphate-buffered Saline). […] The absorbance of each well was measured under conditions of OD 540 nm and reference 660 nm using a plate reader (SpectraMax PLUS384, Molecular Devices, Calif., USA).
The OD value measured on the day of adding the sample solution was defined as S. The OD value measured three days after addition of the sample solution was defined as T. The OD value measured three days after addition of the DMSO dilution was defined as C. […]

T1 sequence (Q00987 25-108 L33E): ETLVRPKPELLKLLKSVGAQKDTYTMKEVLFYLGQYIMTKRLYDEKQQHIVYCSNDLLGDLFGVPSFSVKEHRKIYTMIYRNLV

`CC1(C)CCC2(CC1)N[C@@H](C(=O)N[C@@H]1CC[C@@H](C(N)=O)OC1)[C@H](c1ccnc(Cl)c1F)[C@]21C(=O)Nc2cc(Cl)ccc21` [compound (1), (3′R,4′S,5′R)—N-[(3R,6S)-6-carbamoyltetrahydro-2H-pyran-3-yl]-6″-chloro-4′-(2-chloro-3-fluoropyridin-4-yl)-4,4-dimethyl-2″-oxo-1″,2″-dihydrodispiro[cyclohexane-1,2′-pyrrolidine-3′,3″-indole]-5′-carboxamide] was tested, and the IC50 [1] was at most 100 nM and the GI50 [2] was under 100 nM.
